Results published in ChEMBL document CHEMBL2429770, “Development of Mycobacterium tuberculosis whole cell screening hits as potential antituberculosis agents” (J Med Chem, 2013).

biological target: not listed separately; assay: Inhibition of Mycobacterium tuberculosis PtpB

Going from `O=C(O)c1cc(-c2ccc(-c3ccc(F)c(C(F)(F)F)c3)cc2C2CCCCC2)on1` to `O=P(O)(O)C(F)(F)c1ccc(-c2ccc(F)c(C(F)(F)F)c2)cc1C1CCCCC1`, the Ki rises from 220 nM to 690 nM (3.1-fold).

system: Mycobacterium tuberculosis; assay: Antimycobacterial activity against Mycobacterium tuberculosis H37Rv; format: functional

`Cc1sc(N)nc1C(=O)O` and `COC(=O)c1nc(N)sc1Cc1ccccc1` are the same in MIC: 0.06 µg/mL for the first, 0.06 µg/mL for the second.

Compared with `Cc1ccc2nc(C)c(C(=O)NCc3cccs3)n2c1`, `COc1ccc2nc(C)cc(OCC(=O)Nc3ccccc3OC)c2c1` is 3.7-fold higher in MIC: 0.19 µM for the first, 0.7 µM for the second.

`c1cc2c(s1)CCOC21CCN(Cc2ccc3c(c2)OCCO3)CC1` and `O=C(NC12CC3CC(CC(C3)C1)C2)c1cc2cc(Cl)ccc2[nH]1` are within 1.5-fold of each other in MIC: 0.38 µM for the first, 0.47 µM for the second.

Going from `CCc1ccc([C@@H]2C[C@H](C(F)(F)F)n3ncc(C(=O)NCc4ccc(OC)cc4)c3N2)cc1` to `COc1ccc(CCNc2cc(-c3ccccc3)nc3ncnn23)cc1`, the MIC rises from 0.25 µM to 0.94 µM (3.8-fold).

Compared with `Cc1cccc(-c2nc(Nc3ccncn3)c3c(C)csc3n2)n1`, `CCCCCCCCCCN1CCCC(O/N=C2\[C@H](C)C[C@@](C)(OC)[C@H](O[C@@H]3O[C@H](C)C[C@H](N(C)C)[C@H]3O)[C@@H](C)C(=O)[C@@H](C)C(=O)O[C@H](CC)[C@@](C)(O)[C@H](O)[C@H]2C)C1` (some centres not stated) is 6.1-fold lower in MIC: 0.76 µM for the first, 0.125 µM for the second.
